Key:
[1] = target: panel of 68 receptors (Homo sapiens, UniProt P02708); conditions: Nicotinic Acetylcholine α1, Bungarotoxin, hum, 10 μM
[2] = target: panel of 68 receptors (Homo sapiens, UniProt P03372); conditions: Estrogen ERα, hum, 10 μM
[3] = target: panel of 68 receptors (Homo sapiens, UniProt P04150); conditions: Glucocorticoid, hum, 10 μM
[4] = target: panel of 68 receptors (Homo sapiens, UniProt P07550); conditions: Adrenergic β2, hum, 10 μM
[5] = target: panel of 68 receptors (Homo sapiens, UniProt P08172); conditions: Muscarinic M2, hum, 10 μM
[6] = target: panel of 68 receptors (Homo sapiens, UniProt P08908); conditions: Serotonin (5-Hydroxytryptamine) 5-HT1A, hum, 10 μM
[7] = target: panel of 68 receptors (Homo sapiens, UniProt P08913); conditions: Adrenergic α2A, hum, 10 μM
[8] = target: panel of 68 receptors (Homo sapiens, UniProt P0DMS8); conditions: Adenosine A3, hum, 10 μM
[9] = target: panel of 68 receptors (Homo sapiens, UniProt P11229); conditions: Muscarinic M1, hum, 10 μM
[10] = target: panel of 68 receptors (Homo sapiens, UniProt P20309); conditions: Muscarinic M3, hum, 10 μM
[11] = target: panel of 68 receptors (Homo sapiens, UniProt P24530); conditions: Endothelin ETB, hum, 10 μM
[12] = target: panel of 68 receptors (Homo sapiens, UniProt P25021); conditions: Histamine H2, hum, 10 μM
[13] = target: panel of 68 receptors (Homo sapiens, UniProt P25100); conditions: Adrenergic α1D, hum, 10 μM
[14] = target: panel of 68 receptors (Homo sapiens, UniProt P25101); conditions: Endothelin ETA, hum, 10 μM
[15] = target: panel of 68 receptors (Homo sapiens, UniProt P25105); conditions: Platelet Activating Factor (PAF), hum, 10 μM
[16] = target: panel of 68 receptors (Homo sapiens, UniProt P25929); conditions: Neuropeptide Y Y1, hum, 10 μM
[17] = target: panel of 68 receptors (Homo sapiens, UniProt P29274); conditions: Adenosine A2A, hum, 10 μM
[18] = target: panel of 68 receptors (Homo sapiens, UniProt P30411); conditions: Bradykinin B2, hum, 10 μM
[19] = target: panel of 68 receptors (Homo sapiens, UniProt P30542); conditions: Adenosine A1, hum, 10 μM
[20] = target: panel of 68 receptors (Homo sapiens, UniProt P31645); conditions: Transporter, Serotonin (5-Hydroxytryptamine) (SERT), hum, 10 μM
[21] = target: panel of 68 receptors (Homo sapiens, UniProt P35367); conditions: Histamine H1, hum, 10 μM
[22] = target: panel of 68 receptors (Homo sapiens, UniProt P35408); conditions: Prostanoid EP4, hum, 10 μM
[23] = target: panel of 68 receptors (Homo sapiens, UniProt P35462); conditions: Dopamine D3, hum, 10 μM
[24] = target: panel of 68 receptors (Homo sapiens, UniProt P41143); conditions: Opiate δ1, (OP1, DOP), hum, 10 μM
[25] = target: panel of 68 receptors (Homo sapiens, UniProt P41595); conditions: Serotonin (5-Hydroxytryptamine) 5-HT2B, hum, 10 μM
[26] = target: panel of 68 receptors (Homo sapiens, UniProt P49146); conditions: Neuropeptide Y Y2, hum, 10 μM
[27] = target: panel of 68 receptors (Homo sapiens, UniProt Q12809); conditions: Potassium Channel hERG, hum, 10 μM
[28] = target: panel of 68 receptors (Homo sapiens, UniProt Q99720); conditions: Sigma σ1, hum, 10 μM
[29] = target: panel of 68 receptors (Homo sapiens, UniProt Q9UBS5); conditions: GABAB1A, hum, 10 μM
[30] = target: panel of 68 receptors (Homo sapiens, UniProt Q9Y271); conditions: Leukotriene, Cysteinyl CysLT1, hum, 10 μM
[31] = target: panel of 68 receptors (Rattus norvegicus, UniProt P15207); conditions: Androgen (Testosterone) AR, rat, 10 μM
[32] = target: panel of 68 receptors (Rattus norvegicus, UniProt P15823); conditions: Adrenergic α1B, rat, 10 μM
[33] = target: panel of 68 receptors (Rattus norvegicus, UniProt P43140); conditions: Adrenergic α1A, rat, 10 μM
[34] = target: panel of 68 receptors (Rattus norvegicus, UniProt Q02294); conditions: Calcium Channel N-Type, rat, 10 μM

Sequence of panel of 68 receptors (Homo sapiens, UniProt P20309) (P20309 whole entry): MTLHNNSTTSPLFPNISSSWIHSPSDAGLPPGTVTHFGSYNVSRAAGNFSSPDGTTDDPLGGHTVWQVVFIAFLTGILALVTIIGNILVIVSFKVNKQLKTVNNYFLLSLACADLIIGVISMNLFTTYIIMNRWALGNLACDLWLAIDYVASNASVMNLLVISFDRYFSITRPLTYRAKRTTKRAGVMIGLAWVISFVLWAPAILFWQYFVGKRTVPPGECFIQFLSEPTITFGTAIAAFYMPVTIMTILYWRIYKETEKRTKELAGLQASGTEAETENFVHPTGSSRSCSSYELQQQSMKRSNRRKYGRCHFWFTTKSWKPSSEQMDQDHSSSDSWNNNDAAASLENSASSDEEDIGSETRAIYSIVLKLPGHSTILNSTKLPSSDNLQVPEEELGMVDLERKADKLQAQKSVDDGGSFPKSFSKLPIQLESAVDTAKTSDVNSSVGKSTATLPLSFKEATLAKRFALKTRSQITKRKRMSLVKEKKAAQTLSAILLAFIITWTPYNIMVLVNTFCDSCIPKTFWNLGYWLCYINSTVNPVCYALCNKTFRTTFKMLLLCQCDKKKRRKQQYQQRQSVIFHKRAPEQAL
Sequence of panel of 68 receptors (Homo sapiens, UniProt Q99720) (Q99720 whole entry): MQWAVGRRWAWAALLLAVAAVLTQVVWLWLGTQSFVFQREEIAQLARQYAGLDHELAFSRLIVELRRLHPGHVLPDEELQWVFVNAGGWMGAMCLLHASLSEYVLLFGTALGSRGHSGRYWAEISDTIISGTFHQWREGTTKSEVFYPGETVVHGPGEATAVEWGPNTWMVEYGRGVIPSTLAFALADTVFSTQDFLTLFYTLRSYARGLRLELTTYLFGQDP
Sequence of panel of 68 receptors (Rattus norvegicus, UniProt P43140) (P43140 whole entry): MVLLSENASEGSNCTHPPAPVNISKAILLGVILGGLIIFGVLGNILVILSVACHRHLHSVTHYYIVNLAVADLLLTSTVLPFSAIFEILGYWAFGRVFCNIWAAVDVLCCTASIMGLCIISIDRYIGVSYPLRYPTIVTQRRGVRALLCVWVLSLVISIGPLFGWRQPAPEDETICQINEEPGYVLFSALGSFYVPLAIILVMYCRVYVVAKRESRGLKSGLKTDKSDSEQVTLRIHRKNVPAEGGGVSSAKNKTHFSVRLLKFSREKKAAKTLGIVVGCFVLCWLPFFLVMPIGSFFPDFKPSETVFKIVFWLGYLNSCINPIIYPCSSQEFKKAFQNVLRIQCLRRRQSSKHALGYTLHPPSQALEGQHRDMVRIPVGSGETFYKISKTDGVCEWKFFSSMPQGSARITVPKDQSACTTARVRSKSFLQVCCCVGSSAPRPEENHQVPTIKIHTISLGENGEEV
Sequence of panel of 68 receptors (Homo sapiens, UniProt P02708) (P02708 21-457): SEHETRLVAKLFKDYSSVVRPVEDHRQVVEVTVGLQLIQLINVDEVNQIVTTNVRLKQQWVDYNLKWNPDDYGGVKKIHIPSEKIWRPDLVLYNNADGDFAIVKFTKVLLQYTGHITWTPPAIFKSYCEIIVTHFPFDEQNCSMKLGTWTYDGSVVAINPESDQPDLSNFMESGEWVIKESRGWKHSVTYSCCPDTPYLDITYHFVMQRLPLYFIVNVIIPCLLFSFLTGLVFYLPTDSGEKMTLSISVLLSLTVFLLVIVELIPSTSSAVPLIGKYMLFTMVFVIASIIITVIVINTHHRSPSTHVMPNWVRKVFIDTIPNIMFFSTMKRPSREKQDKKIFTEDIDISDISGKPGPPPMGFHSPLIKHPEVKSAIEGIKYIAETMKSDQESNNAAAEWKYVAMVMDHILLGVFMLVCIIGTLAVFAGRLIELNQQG
Sequence of panel of 68 receptors (Homo sapiens, UniProt P04150) (P04150 whole entry): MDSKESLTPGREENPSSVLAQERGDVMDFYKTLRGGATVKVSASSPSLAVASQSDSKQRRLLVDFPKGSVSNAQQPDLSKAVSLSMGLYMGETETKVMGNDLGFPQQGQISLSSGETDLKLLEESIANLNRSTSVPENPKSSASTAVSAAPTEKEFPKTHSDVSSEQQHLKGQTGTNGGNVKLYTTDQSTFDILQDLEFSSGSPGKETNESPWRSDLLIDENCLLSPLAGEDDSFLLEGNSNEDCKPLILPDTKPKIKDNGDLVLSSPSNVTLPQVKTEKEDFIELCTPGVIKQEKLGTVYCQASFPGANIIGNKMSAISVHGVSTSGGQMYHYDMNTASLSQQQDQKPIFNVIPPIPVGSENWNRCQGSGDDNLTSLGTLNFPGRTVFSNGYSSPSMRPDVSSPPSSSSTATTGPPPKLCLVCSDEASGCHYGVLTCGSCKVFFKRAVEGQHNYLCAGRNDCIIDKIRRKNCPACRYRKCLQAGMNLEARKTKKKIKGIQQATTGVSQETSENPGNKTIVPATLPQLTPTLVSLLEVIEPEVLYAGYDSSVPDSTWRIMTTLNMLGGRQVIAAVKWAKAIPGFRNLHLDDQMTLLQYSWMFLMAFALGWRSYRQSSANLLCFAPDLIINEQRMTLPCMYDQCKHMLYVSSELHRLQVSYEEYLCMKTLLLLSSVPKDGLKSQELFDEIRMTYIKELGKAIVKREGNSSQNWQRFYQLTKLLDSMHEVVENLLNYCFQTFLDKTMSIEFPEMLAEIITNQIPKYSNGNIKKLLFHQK
Sequence of panel of 68 receptors (Homo sapiens, UniProt P25105) (P25105 whole entry): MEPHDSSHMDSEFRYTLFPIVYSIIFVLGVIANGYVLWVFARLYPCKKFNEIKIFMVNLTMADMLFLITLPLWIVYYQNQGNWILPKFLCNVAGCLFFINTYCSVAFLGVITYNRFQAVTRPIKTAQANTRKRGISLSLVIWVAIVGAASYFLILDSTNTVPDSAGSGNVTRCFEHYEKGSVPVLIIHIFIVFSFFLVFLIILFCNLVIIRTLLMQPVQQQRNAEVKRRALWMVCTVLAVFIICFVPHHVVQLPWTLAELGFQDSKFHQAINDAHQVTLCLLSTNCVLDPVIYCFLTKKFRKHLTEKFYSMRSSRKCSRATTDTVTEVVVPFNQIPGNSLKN
Sequence of panel of 68 receptors (Homo sapiens, UniProt P11229) (P11229 whole entry): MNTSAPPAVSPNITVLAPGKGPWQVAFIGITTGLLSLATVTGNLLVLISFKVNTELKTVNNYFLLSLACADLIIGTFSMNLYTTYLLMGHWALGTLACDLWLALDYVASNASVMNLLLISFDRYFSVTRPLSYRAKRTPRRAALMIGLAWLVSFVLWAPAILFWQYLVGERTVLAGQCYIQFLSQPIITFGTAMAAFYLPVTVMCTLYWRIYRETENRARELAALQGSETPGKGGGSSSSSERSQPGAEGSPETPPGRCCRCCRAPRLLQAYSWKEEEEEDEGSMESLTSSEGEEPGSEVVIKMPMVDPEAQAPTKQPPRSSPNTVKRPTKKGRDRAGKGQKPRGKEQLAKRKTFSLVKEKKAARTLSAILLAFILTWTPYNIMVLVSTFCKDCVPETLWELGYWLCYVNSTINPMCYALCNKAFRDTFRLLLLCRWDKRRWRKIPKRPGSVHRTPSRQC
Sequence of panel of 68 receptors (Homo sapiens, UniProt P41143) (P41143 whole entry): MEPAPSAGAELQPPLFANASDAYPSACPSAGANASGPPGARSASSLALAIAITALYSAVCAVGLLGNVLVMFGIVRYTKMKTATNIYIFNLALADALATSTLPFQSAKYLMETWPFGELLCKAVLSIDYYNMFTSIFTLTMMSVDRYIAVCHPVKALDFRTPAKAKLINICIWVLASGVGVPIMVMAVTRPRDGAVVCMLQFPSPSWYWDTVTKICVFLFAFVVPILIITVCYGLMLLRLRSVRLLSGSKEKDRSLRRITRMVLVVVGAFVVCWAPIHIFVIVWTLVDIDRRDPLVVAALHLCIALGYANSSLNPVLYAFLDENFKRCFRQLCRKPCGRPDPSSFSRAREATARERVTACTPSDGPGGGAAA
Sequence of panel of 68 receptors (Homo sapiens, UniProt P31645) (P31645 whole entry): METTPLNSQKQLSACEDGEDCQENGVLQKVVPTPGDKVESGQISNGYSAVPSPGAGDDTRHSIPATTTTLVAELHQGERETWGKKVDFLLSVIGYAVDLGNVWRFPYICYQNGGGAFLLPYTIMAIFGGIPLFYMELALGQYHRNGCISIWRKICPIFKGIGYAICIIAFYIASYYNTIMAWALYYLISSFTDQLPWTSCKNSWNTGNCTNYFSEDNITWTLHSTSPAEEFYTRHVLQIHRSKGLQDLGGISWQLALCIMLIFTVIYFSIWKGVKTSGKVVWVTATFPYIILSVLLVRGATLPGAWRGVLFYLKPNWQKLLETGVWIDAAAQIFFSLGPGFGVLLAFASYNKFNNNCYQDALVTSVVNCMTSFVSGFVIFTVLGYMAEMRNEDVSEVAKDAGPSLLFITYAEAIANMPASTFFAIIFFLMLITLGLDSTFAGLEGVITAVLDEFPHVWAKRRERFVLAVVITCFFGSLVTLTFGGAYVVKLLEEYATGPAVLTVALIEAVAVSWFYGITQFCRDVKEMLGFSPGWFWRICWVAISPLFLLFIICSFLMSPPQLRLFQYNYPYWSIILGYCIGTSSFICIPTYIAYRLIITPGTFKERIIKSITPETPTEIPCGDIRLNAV
Sequence of panel of 68 receptors (Homo sapiens, UniProt P35367) (P35367 whole entry): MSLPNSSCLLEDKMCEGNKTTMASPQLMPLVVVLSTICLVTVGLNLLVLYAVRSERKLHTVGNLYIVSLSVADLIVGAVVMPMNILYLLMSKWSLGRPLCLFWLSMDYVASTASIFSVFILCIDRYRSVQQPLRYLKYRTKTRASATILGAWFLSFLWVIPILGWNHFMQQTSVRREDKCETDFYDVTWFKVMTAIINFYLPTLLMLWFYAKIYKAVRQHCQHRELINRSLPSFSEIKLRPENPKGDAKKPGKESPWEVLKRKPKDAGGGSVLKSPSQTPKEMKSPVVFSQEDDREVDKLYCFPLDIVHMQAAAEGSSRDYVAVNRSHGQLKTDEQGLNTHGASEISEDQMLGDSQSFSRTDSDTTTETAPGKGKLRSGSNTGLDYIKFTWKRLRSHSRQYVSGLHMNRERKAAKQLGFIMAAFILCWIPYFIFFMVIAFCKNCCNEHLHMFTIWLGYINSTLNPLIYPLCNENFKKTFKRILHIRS

CCOc1ccc(-c2cc(NC(=O)c3c(F)cccc3F)c(C(=O)O)s2)cc1 [KUC107784N-02]
% Inh. [1]: 8%
% Inh. [2]: 9%
% Inh. [3]: −2%
% Inh. [4]: 3%
% Inh. [5]: −8%
% Inh. [6]: 4%
% Inh. [7]: −1%
% Inh. [8]: 29%
% Inh. [9]: 1%
% Inh. [10]: 14%
% Inh. [11]: 3%
% Inh. [12]: 2%
% Inh. [13]: 2%
% Inh. [14]: 8%
% Inh. [15]: 4%
% Inh. [16]: 5%
% Inh. [17]: 19%
% Inh. [18]: 6%
% Inh. [19]: 28%
% Inh. [20]: 8%
% Inh. [21]: 2%
% Inh. [22]: −4%
% Inh. [23]: 4%
% Inh. [24]: 0%
% Inh. [25]: 11%
% Inh. [26]: −3%
% Inh. [27]: −11%
% Inh. [28]: 5%
% Inh. [29]: 5%
% Inh. [30]: 0%
% Inh. [31]: −5%
% Inh. [32]: 0%
% Inh. [33]: 16%
% Inh. [34]: −16%

— US9688653B2, “Ethoxyphenyl thienyl compounds and methods for the treatment of bacterial infections” (Duke University, priority 2013, dated 2017)
